Results: patent US7998972B2, “1H-imidazo[4,5-c]quinoline derivatives in the treatment of protein kinase dependent diseases” (Novartis AG, priority 2002, dated 2011)
pIC50: −log10 of the molar value. Counter-ions that a name gives are not always drawn.

target: T1, c-Met (Homo sapiens, UniProt P08581); experiment: Inhibition of c-Met kinase (33P-ATP filter assay); assay type: biochemical; details: GST-c-Met cytoplasmic domain, poly(EY) substrate; read-out: IC50 range class, inhibition of c-Met
T1 construct: c-Met cytoplasmic domain (amino acids 969 to C-terminus); made in house; host or cells: baculovirus / Sf9 cells
Description: Compounds of the formula I, for example, are able to inhibit c-Met kinase as mentioned already in the introduction. Using the sequence disclosed by Chan et al. (see Chan, A M-L, King H W S, Tempest P R, Deakin E A, Cooper C S, Brookes P. Primary structure of the met protein tyrosine kinase domain. Oncogene 1987; 12:229-233), a construct with this sequence, after hooking to a GST tag, was cloned into baculovirus and expressed in Sf9 cells. After partial purification by affinity chromatography on GST agarose resulting in a >90% pure preparation (SDS-PAGE), the kinase activity of this construct is used for inhibition assays using the compounds of formula I. The quality of the purified kinase preparations is highly reproducible: 9 batches of c-Met gives an average specific activity of 32.3±5.7 nmol/mg·min.
For inhibition studies, the following experimental protocol is used:
In vitro protein kinase assays are performed in 96-well plates. The amount of enzyme used in kinase assays and the incubation time for the kinase reaction are adjusted so that maximally 25% (in routine experiments <10%) of the substrate ATP are consumed.
Test compounds of the formula I are first dissolved in DMSO at a concentration of 1-10 mM (stock solution) and then further diluted with water/3% DMSO as required so that the final DMSO concentration in the assay is 1%.
The assay components are mixed in the following order: • 10 μl 3×compound (in 3% DMSO) • 10 μl 3×assay mix (MgCl2/MnCl2/ATP/^33P-ATP/poly(EY)) • 10 μl 3×enzyme dilution
Assays are incubated for 15 min (in special cases up to 60 min) at ambient temperature, reactions terminated by addition of 10 μl 0.25 M EDTA pH 7, then 20 μl transferred to a Millipore Immobilon^P membrane (previously soaked for 5 min with methanol, rinsed with water, then soaked for 5 min with 0.5% H3PO4 and mounted on vacuum manifold) with disconnected vacuum source. After spotting all samples, vacuum is connected and each well rinsed with 200 μl 0.5% H3PO4. Membranes are removed and washed 4× on shaker with 0.5% H3PO4, once with methanol. Membranes are counted after drying at ambient temperature, mounting in Packard TopCount 96-well frame, and addition of 10 μl/well of the scintillator Microscint™ (Packard).
IC50 values are calculated by logarithmic regression analysis of the percentage inhibition of each compound at 4 concentrations (usually 3- or 10-fold dilution series starting at 10 μM). In each experiment, the actual inhibition by reference compound is used for normalization of IC50 values to the basis of an average value of the reference inhibitor: Normalized IC50=measured IC50·average ref. IC50/measured ref. IC50 Example: • Reference inhibitor in experiment 0.4 μM, average 0.3 μM • Test compound in experiment 1.0 μM, normalization: 1.0·0.3/0.4=0.75 μM
For example, staurosporine or a synthetic staurosporine derivative are used as reference compounds.

T1 sequence (P08581 969-1390 limits assumed): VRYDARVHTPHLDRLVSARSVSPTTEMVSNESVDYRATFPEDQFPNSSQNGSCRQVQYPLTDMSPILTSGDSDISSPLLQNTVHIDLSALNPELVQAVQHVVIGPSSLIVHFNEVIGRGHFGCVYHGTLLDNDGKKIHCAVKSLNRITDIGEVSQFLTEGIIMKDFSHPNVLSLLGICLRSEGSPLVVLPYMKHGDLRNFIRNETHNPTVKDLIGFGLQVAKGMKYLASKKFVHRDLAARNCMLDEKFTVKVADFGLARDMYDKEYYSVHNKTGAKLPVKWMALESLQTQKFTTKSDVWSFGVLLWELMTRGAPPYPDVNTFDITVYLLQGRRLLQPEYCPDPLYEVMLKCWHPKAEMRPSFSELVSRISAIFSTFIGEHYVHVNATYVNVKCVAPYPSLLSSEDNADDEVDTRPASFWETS

pIC50 | Compound
≥ 6.30 | Clc1ccc2ncc3ncn(-c4ccccc4Cl)c3c2c1 [Example 25, 8-Chloro-1-(2-chloro-phenyl)-1H-imidazo[4,5-c]quinoline]
≥ 6.30 | N=C(N)Cc1nc2cnc3ccc(Cl)cc3c2n1-c1ccccc1Cl [Example 88, 2-[8-Chloro-1-(2-chloro-phenyl)-1H-imidazo[4,5-c]quinolin-2-yl]-acetamidine]

The next lines start with the compound.

Compound | pIC50
N#Cc1nc2cnc3ccc(Cl)cc3c2n1-c1ccccc1Cl [Example 84, 8-Chloro-1-(2-chloro-phenyl)-1H-imidazo[4,5-c]quinoline-2-carbonitrile] | ≥ 6.30
N/C(Cc1nc2cnc3ccc(Cl)cc3c2n1-c1ccccc1Cl)=N/O [Example 87, 2-[8-Chloro-1-(2-chloro-phenyl)-1H-imidazo[4,5-c]quinolin-2-yl]-N-hydroxy-acetamidine] | 6.00 to 6.30
O=c1[nH]c2cnc3ccc(Cl)cc3c2n1-c1ccccc1Cl [Example 92, 8-Chloro-1-(2-chloro-phenyl)-1,3-dihydro-imidazo[4,5-c]quinolin-2-one] | 6.00 to 6.30
O=c1n(-c2cccc(Cl)c2)c2cnc3ccc(Br)cc3c2n1-c1ccccc1Cl [Example 102, 8-Bromo-1-(2-chloro-phenyl)-3-(3-chloro-phenyl)-1,3-dihydro-imidazo[4,5-c]quinolin-2-one] | 5.70 to 6.00
O=c1n(Cc2ccoc2)c2cnc3ccc(Cl)cc3c2n1-c1ccccc1Cl [Example 133, 8-Chloro-1-(2-chloro-phenyl)-3-(3-furyl-methyl)-1,3-dihydro-imidazo[4,5-c]quinolin-2-one] | ≥ 6.30

tested on: not given; experiment: not given; details: not given

melting point [°C] | Compound
161 to 162 | Fc1ccc(-n2cnc3cnc4ccccc4c32)cc1 [Example 1, 1-(4-Fluoro-phenyl)-1H-imidazo[4,5-c]quinoline]
162 to 163 | Fc1ccc2ncc3ncn(-c4ccccc4F)c3c2c1 [Example 19, 8-Fluoro-1-(2-fluoro-phenyl)-1H-imidazo[4,5-c]quinoline]
240 to 242 | Clc1ccc2ncc3ncn(-c4ccccc4)c3c2c1 [Example 23, 8-Chloro-1-phenyl-1H-imidazo[4,5-c]quinoline]
148 to 149 | NCc1cccc(-n2cnc3cnc4ccc(Cl)cc4c32)c1 [Example 42, 3-(8-Chloro-imidazo[4,5-c]quinolin-1-yl)-benzylamine]
140 to 141 | NCCc1ccc(-n2cnc3cnc4ccc(Cl)cc4c32)cc1 [Example 43, 2-[4-(8-Chloro-imidazo[4,5-c]quinolin-1-yl)-phenyl]-ethylamine]
202 to 205 | COc1ccc2ncc3ncn(-c4ccccc4Cl)c3c2c1 [Example 44, 1-(2-Chloro-phenyl)-8-methoxy-1H-imidazo[4,5-c]quinoline]
156 to 158 | CCc1ccc2ncc3ncn(-c4ccccc4Cl)c3c2c1 [Example 49, 1-(2-Chloro-phenyl)-ethyl-1H-imidazo[4,5-c]quinoline]
128 to 129 | Brc1ccccc1-n1cnc2cnc3ccc(-c4ccccc4)cc3c21 [Example 53, 1-(2-Bromo-phenyl)-8-Phenyl-1H-imidazo[4,5-c]quinoline]
249 to 251 | N/C(=N\O)c1ccccc1-n1cnc2cnc3ccc(-c4ccccc4)cc3c21 [Example 67, N-Hydroxy-2-(8-phenyl-imidazo[4,5-c]quinolin-1-yl)-benzamidine]
253 to 254 | N/C(Cc1ccccc1-n1cnc2cnc3ccc(-c4ccccc4)cc3c21)=N/O [Example 68, N-Hydroxy-2-[2-(8-phenyl-imidazo[4,5-c]quinolin-1-yl)-phenyl]-acetamidine]
284 to 285 | N=C(N)c1ccccc1-n1cnc2cnc3ccc(-c4ccccc4)cc3c21 [Example 69, 2-(8-Phenyl-imidazo-4,5-quinolin-1-yl)-benzamidine]
261 to 263 | N=C(N)Cc1ccccc1-n1cnc2cnc3ccc(-c4ccccc4)cc3c21 [Example 70, 2-[2-(8-Phenyl-imidazo[4,5-c]quinolin-1-yl)-phenyl]-acetamidine]
255 to 258 | O=C(Nc1nc2ccc(Cl)cc2c2c1ncn2-c1ccccc1Cl)c1ccccc1 [Example 72, N-[8-Chloro-1-(2-chloro-phenyl)-1H-imidazo[4,5-c]quinolin-4-yl]-benzamide]
194 to 195 | NC(=O)c1nc2cnc3ccc(Cl)cc3c2n1-c1ccccc1Cl [Example 83, 8-Chloro-1-(2-chloro-phenyl)-1H-imidazo[4,5-c]quinoline-2-carboxylic acid amide]

The remaining lines, values behind:

Compound | melting point [°C]
N/C(Cc1nc2cnc3ccc(Cl)cc3c2n1-c1ccccc1Cl)=N/O (as salt: sodium) [Example 87, 2-[8-Chloro-1-(2-chloro-phenyl)-1H-imidazo[4,5-c]quinolin-2-yl]-N-hydroxy-acetamidine] | 114
Fc1ccc(-n2cnc3cnc4cc(Cl)ccc4c32)cc1 [Example 15, 7-Chloro-1-(4-fluoro-phenyl)-1H-imidazo[4,5-c]quinoline] | 273 to 274
[O-][n+]1cc2ncn(-c3ccccc3Cl)c2c2cc(Cl)ccc21 [Example 71, 8-Chloro-1-(2-chloro-phenyl)-1H-imidazo[4,5-c]quinoline 5-oxide] | 247 to 250
Nc1nc2ccc(Cl)cc2c2c1ncn2-c1ccccc1Cl [Example 73, 8-Chloro-1-(2-chloro-phenyl)-1H-imidazo[4,5c]-quinolin-4-ylamine] | 262 to 263
N#Cc1nc2ccc(Cl)cc2c2c1ncn2-c1ccccc1Cl [Example 74, 8-Chloro-1-(2-chloro-phenyl)-1H-imidazo[4,5-c]quinoline-4-carbonitrile] | 248 to 250
Clc1ccc2nc(Cl)c3ncn(-c4ccccc4Cl)c3c2c1 [Example 75, 4,8-Dichloro-1-(2-chloro-phenyl)-1H-imidazo[4,5-c]quinoline] | 194 to 200
CNc1nc2ccc(Cl)cc2c2c1ncn2-c1ccccc1Cl [Example 76, [8-Chloro-1-(2-chloro-phenyl)-1H-imidazo[4,5-c]quinolin-4-yl]-methyl-amine] | 210 to 212
Clc1ccc2ncc3nc(Br)n(-c4ccccc4Cl)c3c2c1 [Example 82, 2-Bromo-8-chloro-1-(2-chloro-phenyl)-1H-imidazo[4,5-c]quinoline] | 183 to 192
N#Cc1nc2cnc3ccc(Cl)cc3c2n1-c1ccccc1Cl [Example 84, 8-Chloro-1-(2-chloro-phenyl)-1H-imidazo[4,5-c]quinoline-2-carbonitrile] | 242 to 244
N/C(=N\O)c1nc2cnc3ccc(Cl)cc3c2n1-c1ccccc1Cl [Example 86, 8-Chloro-1-(2-chloro-phenyl)-N-hydroxy-1H-imidazo[4,5-c]quinoline-2-carboxamidine] | 265 to 267
Cc1nc2cnc3ccc(Cl)cc3c2n1-c1ccccc1Cl [Example 136, 8-Chloro-1-(2-chloro-phenyl)-2-methyl-1H-imidazo[4,5-c]quinoline] | 177.5
